One data set relates to HL-60. Description: cells. The following applies: Homo sapiens.
Data set [1] is described as follows: Stability in human liver microsomes assessed as compound remaining after 30 mins. Type of data set: ADME, microsome. The following applies: read-out: Stability. A general note: Microsomes from liver hold many membrane-bound enzymes, among them those of drug oxidation.
The nature of data set [2]: Solubility of the compound in distilled water kept in shaker for 1 hr. Type of data set: physicochemical.
In the next data set the test system is K562. In words: cells. The following applies: Homo sapiens.
Data set [3] in a line: Stability in rat liver microsomes assessed as compound remaining after 30 mins. Type of data set: ADME, microsome. The following applies: read-out: Stability.
Data set [4] is described as follows: Solubility of the compound in phosphate buffered saline kept in shaker for 1 hr. Type of data set: physicochemical.
Data set [5] has as its target T1, Receptor-type tyrosine-protein kinase FLT3 (Homo sapiens, UniProt P36888).
T1 sequence (P36888 whole entry): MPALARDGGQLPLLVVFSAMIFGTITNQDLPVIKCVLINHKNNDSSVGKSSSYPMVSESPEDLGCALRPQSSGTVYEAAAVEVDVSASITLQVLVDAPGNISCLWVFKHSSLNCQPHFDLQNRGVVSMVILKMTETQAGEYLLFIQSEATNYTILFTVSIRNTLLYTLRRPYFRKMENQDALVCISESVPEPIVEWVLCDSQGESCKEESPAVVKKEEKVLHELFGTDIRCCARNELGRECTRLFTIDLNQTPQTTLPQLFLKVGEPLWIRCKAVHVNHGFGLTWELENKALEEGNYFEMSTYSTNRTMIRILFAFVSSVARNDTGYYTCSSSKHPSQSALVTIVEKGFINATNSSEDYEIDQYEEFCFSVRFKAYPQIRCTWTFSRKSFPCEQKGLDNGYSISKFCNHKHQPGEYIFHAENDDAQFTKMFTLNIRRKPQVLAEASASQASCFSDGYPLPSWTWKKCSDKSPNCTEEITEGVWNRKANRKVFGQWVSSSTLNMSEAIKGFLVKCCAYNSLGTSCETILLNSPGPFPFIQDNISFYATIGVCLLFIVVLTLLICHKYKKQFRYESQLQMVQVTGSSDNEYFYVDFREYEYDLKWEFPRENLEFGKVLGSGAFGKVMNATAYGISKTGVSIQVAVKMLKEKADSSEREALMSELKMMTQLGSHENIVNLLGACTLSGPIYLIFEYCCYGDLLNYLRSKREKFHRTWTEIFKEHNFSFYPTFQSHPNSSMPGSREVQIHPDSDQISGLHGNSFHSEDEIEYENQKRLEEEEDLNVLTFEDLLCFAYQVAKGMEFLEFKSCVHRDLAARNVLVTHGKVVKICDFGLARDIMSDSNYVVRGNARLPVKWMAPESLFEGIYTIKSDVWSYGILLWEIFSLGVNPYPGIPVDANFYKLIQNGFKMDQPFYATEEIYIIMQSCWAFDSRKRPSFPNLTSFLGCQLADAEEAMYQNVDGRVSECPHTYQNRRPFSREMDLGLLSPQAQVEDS
In words: biochemical. Type of data set: cell-based.
Description: Inhibition of N-terminal GST-tagged recombinant human wild-type FLT3 (564 to end residues) expressed in baculovirus infected sf21 cells using Abltide as substrate in presence of [gamma33P]ATP after 10 mins by scintillation counting method

Data set [6] concerns the target Receptor-type tyrosine-protein kinase FLT3 (Homo sapiens, UniProt P36888, D835Y). Description: biochemical. Type of data set: cell-based.
Description: Inhibition of N-terminal GST-tagged recombinant human wild-type FLT3 (564 to end residues) D835Y mutant expressed in baculovirus infected sf21 cells using Abltide as substrate in presence of [gamma33P]ATP after 10 mins by scintillation counting method
In a further data set the test system is THP-1. Description: cells. The settings on record: Homo sapiens.
In another data set the test system is MV4-11. Description: cells. The following applies: Homo sapiens.

Molecules are shown by their SMILES. Converted amounts (≈) assume the structure as drawn. Bounds are passed on as bounds.

Description for HL-60: Growth inhibition of human HL60 cells harboring wild-type FLT3 by CCK8 assay
Description for K562: Growth inhibition of FLT3 null human K562 cells by CCK8 assay
Description for MV4-11: Growth inhibition of human MV4-11 cells harboring FLT3-ITD mutant by XTT assay
Description for THP-1: Growth inhibition of human THP1 cells harboring wild-type FLT3 by XTT assay

For orientation: GI50 means the concentration at which growth is held to half of that of the control. By solubility is commonly meant the dissolved amount per volume that the medium holds. Low values mean little dissolved substance, high ones much dissolved substance. With `CC1=CC(=O)N(Nc2nc(-c3cccs3)nc3sc(C)c(C)c23)C1=O`, the GI50 in the data set with HL-60 is > 10000 nM; with K562 it was 102 nM. Moreover, the figures for the remaining at 0.5 h in data set [1] and in [3] were 32.4% and 22.7%, respectively. The solubility at 1 h amounted to 1.28 µM (≈ 0.474 µg/mL) in [2] and 1.04 µM (≈ 0.385 µg/mL) in data set [4].
`CC1=CC(=O)N(Nc2nc(-c3cccs3)nc3sc(C)cc23)C1=O`: the GI50 in the data set on HL-60 is > 10000 nM; with K562 it was 2570 nM. The values for the remaining at 0.5 h in data set [1] and in data set [3] were 58.8% and 32.6%, respectively. Further, the figures for the solubility at 1 h in [2] and in data set [4] were 5.84 µM (≈ 2.08 µg/mL) and 0.36 µM (≈ 0.128 µg/mL), respectively.
Usually IC50 stands for the concentration at which inhibition is half-maximal. Low readings indicate inhibition by little substance, high ones a need for much substance. For the compound `CNCCOc1ccc(-c2sc3nc(-c4cccs4)nc(NN4C(=O)C=C(C)C4=O)c3c2C)cc1`, the IC50 in [5] was found to be 11.1 nM.
Consider `CC1=CC(=O)N(Nc2nc(-c3ccc[nH]3)nc3sc(C)cc23)C1=O`, for which the IC50 in data set [5] was 135 nM; in data set [6] it was 117 nM. For the same compound, the results for the remaining at 0.5 h in data set [1] and in [3] were 40.4% and 39.1%, respectively. The solubility at 1 h in data set [2] worked out at 10.1 µM (≈ 3.42 µg/mL); in [4], 0.59 µM (≈ 0.2 µg/mL).
Turning to `CC1=CC(=O)N(Nc2nc(-c3ccc(F)cc3)nc3sc(C)cc23)C1=O`, the IC50 in data set [5] worked out at 274 nM; in data set [6], 266 nM. Also, the figures for the remaining at 0.5 h in [1] and in data set [3] were 42.6% and 8.58%, respectively. In addition, the solubility at 1 h in data set [2] and in [4] was < 0.14 µM each time.
As to `CC1=CC(=O)N(Nc2nc(-c3ccc[nH]3)nc3sc(C)c(C)c23)C1=O`, the GI50 is > 10000 nM in the data set on HL-60, 339 nM with THP-1, 452 nM in the data set on MV4-11 and 1100 nM in the data set on K562. In addition, the IC50 in data set [5] is 79.3 nM; in data set [6], 89.2 nM. Further, the remaining at 0.5 h stood at 37.1% in data set [1] and 39.7% in data set [3]. The figures for the solubility at 1 h in [2] and in data set [4] were 0.87 µM (≈ 0.307 µg/mL) and 0.16 µM (≈ 0.0565 µg/mL), respectively.
`CC1=CC(=O)N(Nc2nc(-c3ccc(F)cc3)nc3sc(C)c(C)c23)C1=O`: the IC50 worked out at 211 nM in [5] and 172 nM in data set [6]. The remaining at 0.5 h came out at 20.7% in data set [1] and 19.6% in data set [3]. The solubility at 1 h in [2] and in [4] was < 0.14 µM in each case.
Take `CC1=CC(=O)N(Nc2nc(-c3ccco3)nc3sc(C)cc23)C1=O`: the results for the IC50 in data set [5] and in [6] were 171 nM and 129 nM, respectively. Besides, the remaining at 0.5 h amounted to 35.1% in [1] and 34.8% in [3]. The solubility at 1 h in data set [2] worked out at 40.6 µM (≈ 13.8 µg/mL); in data set [4], 28.5 µM (≈ 9.69 µg/mL).
With `CC1=CC(=O)N(Nc2nc(-c3nccs3)nc3sc(C)cc23)C1=O`, the GI50 with HL-60 was > 10000 nM; in the data set on THP-1, 961 nM; with MV4-11, 1350 nM; in the data set on K562, 1280 nM. Also, the IC50 in data set [5] is 33.4 nM; in data set [6] it was 33.9 nM. For the same compound, the remaining at 0.5 h in [1] was 27.5%; in data set [3], 14.5%. The solubility at 1 h in data set [2] worked out at 1.43 µM (≈ 0.511 µg/mL); in data set [4] it was 2.8 µM (≈ 1 µg/mL).
`CC1=CC(=O)N(Nc2nc(-c3ccco3)nc3sc(C)c(C)c23)C1=O`: the IC50 in data set [5] amounted to 100 nM; in data set [6] it was 102 nM. Further, the remaining at 0.5 h was 10.9% in data set [1] and 26.2% in data set [3]. Further, the solubility at 1 h in [2] was 24.6 µM (≈ 8.73 µg/mL); in data set [4], 12.4 µM (≈ 4.38 µg/mL).
Consider `CC1=CC(=O)N(Nc2nc(-c3nccs3)nc3sc(C)c(C)c23)C1=O`, for which the GI50 with HL-60 was > 10000 nM; in the data set with THP-1 it was 141 nM; with MV4-11, 216 nM; in the data set with K562 it was 532 nM. Moreover, the concentration for half-maximal inhibition (IC50) stood at 16 nM in data set [5] and 21.4 nM in data set [6]. Besides, the values for the remaining at 0.5 h in [1] and in data set [3] were 45.7% and 17.7%, respectively. Further, the solubility at 1 h in data set [2] amounted to 25.3 µM (≈ 9.41 µg/mL); in data set [4] it was 36.8 µM (≈ 13.7 µg/mL).
